Where a SMILES comes first, the peptide text is derived from it. Bridges are numbered along the chain shown (N, C = ends). [ ]: non-standard residue; d: D form. The star is where a group is joined. ξ: configuration not given here. Phe(4-COOH) = N[C@@H](Cc1ccc(C(=O)O)cc1)C(=O)O; Bip = N[C@@H](Cc1ccc(-c2ccccc2)cc1)C(=O)O; Phe(3-Me) = Cc1cccc(C[C@H](N)C(=O)O)c1; NMeR = CN[C@@H](CCCNC(=N)N)C(=O)O; NMeE = CN[C@@H](CCC(=O)O)C(=O)O; Cha = N[C@@H](CC1CCCCC1)C(=O)O; Cit = NC(=O)NCCC[C@H](N)C(=O)O; Ile(3ξ) = CCC(C)[C@H](N)C(=O)O; NMeN = CN[C@@H](CC(N)=O)C(=O)O; Thr(3ξ) = CC(O)[C@H](N)C(=O)O; Carboxymethyl = O=C(O)C*; NMeA = CN[C@@H](C)C(=O)O; Aun = NCCCCCCCCCCC(=O)O; Dab = NCC[C@H](N)C(=O)O; AEEA = NCCOCCOCC(=O)O; Sar = CNCC(=O)O
biological target: T1, PD-1/PD-L1 interaction (PE-labeled human PD-L1-Ig binding to Jurkat cell line over-expressing human PD-1) (Homo sapiens, UniProt Q15116); assay: Jurkat-PD-1 Cell Binding High-Content Screening Assay (CBA); settings: Jurkat-hPD-1 cells, PE-labeled PD-L1-Ig 20 nM final; read-out: Jurkat HPD1 PDL1 IC50
T1 construct: expressed in transfected cells; host or cells: Jurkat
Outline: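 In this imaging assay, cells in 10% FCS medium see compound for 2 h at 37 °C and then labeled ligand at 20 nM final for 1 h. Paraformaldehyde fixation, Hoechst 33342 staining and dPBS washes precede image capture.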

T1 sequence (Q15116 25-288): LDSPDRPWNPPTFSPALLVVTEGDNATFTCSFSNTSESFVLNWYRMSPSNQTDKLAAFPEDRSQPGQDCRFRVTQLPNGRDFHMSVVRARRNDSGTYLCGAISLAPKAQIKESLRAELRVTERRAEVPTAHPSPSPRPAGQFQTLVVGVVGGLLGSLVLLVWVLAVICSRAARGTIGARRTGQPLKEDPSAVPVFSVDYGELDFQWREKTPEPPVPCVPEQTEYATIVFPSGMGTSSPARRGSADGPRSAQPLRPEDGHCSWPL

| SMILES | IC50 [nM] |
| --- | --- |
| Cc1cccc(C[C@@H]2NC(=O)[C@H](CC(=O)O)NC(=O)[C@H](Cc3ccc(C(=O)O)cc3)NC(=O)[C@H](Cc3ccc(OCC(=O)O)cc3)NC(=O)CSC[C@@H](C(=O)NCCOCCOCC(=O)NCCCCCCCCCCC(=O)O)NC(=O)[C@H](CCC(=O)O)NC(=O)[C@H](C(C)C)NC(=O)[C@H](CC3CCCCC3)NC(=O)[C@H](CCN)NC(=O)[C@@H](CC(C)C)NC(=O)[C@H](C)N(C)C(=O)[C@H](C(C)C)NC(=O)[C@H](Cc3ccc(-c4ccccc4)cc3)NC(=O)[C@H](CC(C)C)NC2=O)c1 [Example 2296] ({CH2CO}-Y(Carboxymethyl)[Phe(4-COOH)]D[Phe(3-Me)]L[Bip]V[NMeA][dL][Dab][Cha]VEC[AEEA][Aun]-OH; thioether N-14) | 34.6 |
| Cc1cccc(C[C@@H]2NC(=O)[C@H](CC(=O)O)NC(=O)[C@H](Cc3ccc(OCC(=O)O)cc3)NC(=O)[C@H](C(C)O)NC(=O)CSC[C@@H](C(=O)N(C)[C@@H](CC(N)=O)C(=O)NCCCCCCCCCCC(=O)O)NC(=O)[C@H](CO)NC(=O)[C@H](C(C)C)NC(=O)[C@H](CC3CCCCC3)NC(=O)[C@H](CCN)NC(=O)[C@@H](CC(C)C)NC(=O)[C@H](C)N(C)C(=O)[C@H](C(C)C)NC(=O)[C@H](Cc3ccc(-c4ccccc4)cc3)NC(=O)[C@H](C(C)C)NC2=O)c1 (stereo partly drawn) [Example 2302] ({CH2CO}-[Thr(3ξ)]Y(Carboxymethyl)D[Phe(3-Me)]V[Bip]V[NMeA][dL][Dab][Cha]VSC[NMeN][Aun]-OH; thioether N-14) | 28.2 |
| Cc1cccc(C[C@@H]2NC(=O)[C@H](CC(=O)O)NC(=O)[C@H](Cc3ccc(OCC(=O)O)cc3)NC(=O)[C@H](C(C)O)NC(=O)CSC[C@@H](C(=O)N[C@@H](CCN)C(=O)NCCCCCCCCCCC(=O)O)NC(=O)[C@H](C(C)O)NC(=O)[C@H](C(C)C)NC(=O)[C@H](CC3CCCCC3)NC(=O)[C@H](CCN)NC(=O)[C@@H](CC(C)C)NC(=O)[C@H](C)N(C)C(=O)[C@H](CCC(=O)O)NC(=O)[C@H](Cc3ccc(-c4ccccc4)cc3)NC(=O)[C@H](CCC(=O)O)NC2=O)c1 (stereo partly drawn) [Example 2303] ({CH2CO}-[Thr(3ξ)]Y(Carboxymethyl)D[Phe(3-Me)]E[Bip]E[NMeA][dL][Dab][Cha]V[Thr(3ξ)]C[Dab][Aun]-OH; thioether N-14) | 46 |
| CC(=O)NCCCC[C@@H]1NC(=O)[C@H](C(C)C)NC(=O)[C@H](CC2CCCCC2)NC(=O)[C@H](CCN)NC(=O)[C@@H](CC(C)C)NC(=O)[C@H](C)N(C)C(=O)[C@H](C(C)C)NC(=O)[C@H](Cc2ccc(-c3ccccc3)cc2)NC(=O)[C@H](C(C)C)NC(=O)[C@H](Cc2cccc(C)c2)NC(=O)[C@H](CC(=O)O)NC(=O)[C@H](Cc2ccc(OCC(=O)O)cc2)NC(=O)[C@H](C(C)O)NC(=O)CSC[C@@H](C(=O)N(C)CC(=O)NCCOCCOCC(=O)NCCCCCCCCCCC(=O)O)NC1=O (stereo partly drawn) [Example 2304] ({CH2CO}-[Thr(3ξ)]Y(Carboxymethyl)D[Phe(3-Me)]V[Bip]V[NMeA][dL][Dab][Cha]VK(Ac)C[Sar][AEEA][Aun]-OH; thioether N-14) | 31.3 |

The remaining lines, values ahead:

| IC50 [nM] | SMILES |
| --- | --- |
| 8.5 | CCC(C)[C@@H]1NC(=O)[C@H](Cc2ccc(-c3ccccc3)cc2)NC(=O)[C@H](C(C)C)NC(=O)[C@H](Cc2c[nH]c3ccccc23)NC(=O)[C@H](CC(=O)O)NC(=O)[C@H](Cc2ccc(OCC(=O)O)cc2)NC(=O)[C@H](Cc2ccc(OCC(=O)O)cc2)NC(=O)CSC[C@@H](C(=O)N[C@H](CC(N)=O)C(=O)NCCCCCCCCCCC(=O)O)NC(=O)[C@H](CCCNC(N)=O)NC(=O)[C@H](C(C)C)NC(=O)[C@H](CC2CCCCC2)NC(=O)[C@H](CCN)NC(=O)[C@@H](CC(C)C)NC(=O)[C@H](C)N(C)C1=O (stereo partly drawn) [Example 2297] ({CH2CO}-Y(Carboxymethyl)Y(Carboxymethyl)DWV[Bip][Ile(3ξ)][NMeA][dL][Dab][Cha]V[Cit]C[dN][Aun]-OH; thioether N-14) |
| 24.7 | CCC(C)[C@@H]1NC(=O)[C@H](Cc2ccc(-c3ccccc3)cc2)NC(=O)[C@H](C(C)C)NC(=O)[C@H](Cc2cccc(C)c2)NC(=O)[C@H](CC(=O)O)NC(=O)[C@H](Cc2ccc(OCC(=O)O)cc2)NC(=O)[C@H](CCCNC(=N)N)NC(=O)CSC[C@@H](C(=O)N[C@H](CC(N)=O)C(=O)NCCCCCCCCCCC(=O)O)NC(=O)[C@H](C(C)O)NC(=O)[C@H](C(C)C)NC(=O)[C@H](CC2CCCCC2)NC(=O)[C@H](CCN)NC(=O)[C@@H](CC(C)C)NC(=O)[C@H](C)N(C)C1=O (stereo partly drawn) [Example 2298] ({CH2CO}-RY(Carboxymethyl)D[Phe(3-Me)]V[Bip][Ile(3ξ)][NMeA][dL][Dab][Cha]V[Thr(3ξ)]C[dN][Aun]-OH; thioether N-14) |
| 130 | Cc1cccc(C[C@@H]2NC(=O)[C@H](CC(=O)O)NC(=O)[C@H](Cc3ccc(OCC(=O)O)cc3)NC(=O)[C@H](C(C)O)NC(=O)CSC[C@@H](C(=O)N(C)[C@@H](CCC(=O)O)C(=O)NCCCCCCCCCCC(=O)O)NC(=O)[C@H](CO)NC(=O)[C@H](C(C)C)NC(=O)[C@H](CC3CCCCC3)NC(=O)[C@H](CCN)NC(=O)[C@@H](CC(C)C)NC(=O)[C@H](C)N(C)C(=O)[C@H](C(C)C)NC(=O)[C@H](Cc3ccc(-c4ccccc4)cc3)NC(=O)[C@H](C(C)C)NC2=O)c1 (stereo partly drawn) [Example 2299] ({CH2CO}-[Thr(3ξ)]Y(Carboxymethyl)D[Phe(3-Me)]V[Bip]V[NMeA][dL][Dab][Cha]VSC[NMeE][Aun]-OH; thioether N-14) |
| 15.6 | CC(=O)NCCCC[C@@H]1NC(=O)[C@H](CC2CCCCC2)NC(=O)[C@H](CCN)NC(=O)[C@@H](CC(C)C)NC(=O)[C@H](C)N(C)C(=O)[C@H](C(C)C)NC(=O)[C@H](Cc2ccc(-c3ccccc3)cc2)NC(=O)[C@H](C(C)C)NC(=O)[C@H](Cc2cccc(C)c2)NC(=O)[C@H](CC(=O)O)NC(=O)[C@H](Cc2ccc(OCC(=O)O)cc2)NC(=O)[C@H](C(C)O)NC(=O)CSC[C@@H](C(=O)N[C@@H](CCN)C(=O)NCCCCCCCCCCC(=O)O)NC(=O)[C@H](CO)NC1=O (stereo partly drawn) [Example 2300] ({CH2CO}-[Thr(3ξ)]Y(Carboxymethyl)D[Phe(3-Me)]V[Bip]V[NMeA][dL][Dab][Cha]K(Ac)SC[Dab][Aun]-OH; thioether N-14) |
| 151 | Cc1cccc(C[C@@H]2NC(=O)[C@H](CC(=O)O)NC(=O)[C@H](Cc3ccc(OCC(=O)O)cc3)NC(=O)[C@H](C(C)O)NC(=O)CSC[C@@H](C(=O)N(C)[C@@H](CCCNC(=N)N)C(=O)NCCCCCCCCCCC(=O)O)NC(=O)[C@H](CO)NC(=O)[C@H](C(C)C)NC(=O)[C@H](CC3CCCCC3)NC(=O)[C@H](CCN)NC(=O)[C@@H](CC(C)C)NC(=O)[C@H](C)N(C)C(=O)[C@H](C(C)C)NC(=O)[C@H](Cc3ccc(-c4ccccc4)cc3)NC(=O)[C@H](C(C)C)NC2=O)c1 (stereo partly drawn) [Example 2301] ({CH2CO}-[Thr(3ξ)]Y(Carboxymethyl)D[Phe(3-Me)]V[Bip]V[NMeA][dL][Dab][Cha]VSC[NMeR][Aun]-OH; thioether N-14) |
| 19.9 | Cc1cccc(C[C@@H]2NC(=O)[C@H](CC(=O)O)NC(=O)[C@H](Cc3ccc(OCC(=O)O)cc3)NC(=O)[C@H](C(C)O)NC(=O)CSC[C@@H](C(=O)N(C)[C@@H](CC(N)=O)C(=O)NCCOCCOCC(=O)NCCCCCCCCCCC(=O)O)NC(=O)[C@H](CCCNC(N)=O)NC(=O)[C@H](C(C)C)NC(=O)[C@H](CC3CCCCC3)NC(=O)[C@H](CCN)NC(=O)[C@@H](CC(C)C)NC(=O)[C@H](C)N(C)C(=O)[C@H](C(C)C)NC(=O)[C@H](Cc3ccc(-c4ccccc4)cc3)NC(=O)[C@H](C(C)C)NC2=O)c1 (stereo partly drawn) [Example 2305] ({CH2CO}-[Thr(3ξ)]Y(Carboxymethyl)D[Phe(3-Me)]V[Bip]V[NMeA][dL][Dab][Cha]V[Cit]C[NMeN][AEEA][Aun]-OH; thioether N-14) |

— patent US20260070945A1, “MACROCYCLIC IMMUNOMODULATORS” (Bristol-Myers Squibb Company, priority 2022, published 2026)
